# What was measured:
# Type in all cases: in vivo
# [1] = tested on: Beet Armyworm (BAW) (Spodoptera exigua); assay: Bioassay on beet armyworm (BAW), 128-well diet tray assay; conditions: Spodoptera exigua; Beet armyworm, 50 μg/cm^2; read-out: % Mortality BAW 50 μg/cm^2
# Summary of the method: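 Second-instar Spodoptera exigua larvae, one to five per well, on artificial diet treated with 50 μg/cm^2 compound in 90:10 acetone-water and dried, eight wells per compound. Held at 25 °C, 14:10 light-dark for five to seven days; percent mortality averaged over wells.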
# [2] = tested on: Corn Earworm (CEW) (Helicoverpa zea); assay: Bioassay on corn earworm (CEW), 128-well diet tray assay; conditions: Helicoverpa zea; Corn earworm, 50 μg/cm^2; read-out: % Mortality CEW 50 μg/cm^2
# Summary of the method: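 Second-instar Helicoverpa zea larvae (one to five per well) placed on artificial diet treated with 50 μg/cm^2 compound in 90:10 acetone-water, dried, eight wells per compound. Held at 25 °C, 14:10 light-dark, five to seven days; percent mortality averaged over wells.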
# [3] = tested on: Green Peach Aphid (GPA) (Myzus persicae); assay: Bioassay on green peach aphid (GPA), foliar spray on cabbage seedlings; conditions: 72 h, read-out: % Mortality GPA 200 ppm
# Description: Bioassays on Green Peach Aphid (“GPA”) (Myzus persicae)
# Certain molecules disclosed in this document were tested against GPA using procedures described in the following example. In the reporting of the results, the “GPA Rating Table” was used (See Table Section).
# Cabbage seedlings grown in 3-inch pots, with 2-3 small (3-5 cm) true leaves, were used as test substrate. The seedlings were infested with 20-50 GPA (wingless adult and nymph stages) one day prior to chemical application. Four pots with individual seedlings were used for each treatment. Test compounds (2 mg) were dissolved in 2 mL of acetone/methanol (1:1) solvent, forming stock solutions of 1000 ppm test compound. The stock solutions were diluted 5× with 0.025% Tween 20 in H2O to obtain the solution at 200 ppm test compound. A hand-held aspirator-type sprayer was used for spraying a solution to both sides of […] leaves until runoff. Reference plants (solvent check) were sprayed with the diluent only containing 20% by volume of acetone/methanol (1:1) solvent. Treated plants were held in a holding room for three days at approximately 25° C. and ambient relative humidity (RH) prior to grading. Evaluation was conducted by counting the number of live aphids per plant under a microscope. Percent Control was measured by using Abbott's correction formula (W. S. Abbott, “A Method of Computing the Effectiveness of an Insecticide” J. Econ. Entomol. 18 (1925), pp. 265-267) as follows. Corrected%Control=100*(X−Y)/X • where • X=No. of live aphids on solvent check plants and • Y=No. of live aphids on treated plants
# The results are indicated in the table entitled “Table 5: Biological Results” (See Table Section).
SMILES,"pest or weed control at 50 µg/cm2, 50 µg/cm2 [1] [%]","pest or weed control at 50 µg/cm2, 50 µg/cm2 [2] [%]",pest or weed control at 200 ppm [3] [%]
"CC(C)c1ccccc1N1C(=O)CCSC1=NN=Cc1ccc(-c2ncn(-c3ccc(OC(F)(F)F)cc3)n2)cc1 (stereo in doubt) [Compound 224C, (Z)-3-(2-isopropylphenyl)-2-((E)-(4-(1-(4-(trifluoromethoxy)phenyl)-1H-1,2,4-triazol-3-yl)benzylidene)hydrazono)-1,3-thiazinan-4-one]",50 to 100,50 to 100,0 to 80
Cc1cccc(C)c1/N=C(/N/N=C/c1ccc(-c2ncn(-c3ccc(OC(F)(F)F)cc3)n2)cc1)SC/C=C/Br [Compound 4C],50 to 100,50 to 100,0 to 80
Cc1cccc(C)c1/N=C(/N/N=C/c1ccc(-c2ncn(-c3ccc(OC(F)(F)F)cc3)n2)cc1)SCc1c(F)cccc1F [Compound 5C],50 to 100,50 to 100,0 to 80
Cc1cccc(C)c1/N=C(/N/N=C/c1ccc(-c2ncn(-c3ccc(OC(F)(F)F)cc3)n2)cc1)SCc1ccc(OC(F)(F)F)cc1 [Compound 8C],50 to 100,50 to 100,0 to 80
COC(=O)c1ccc(CS/C(=N\c2c(C)cccc2C)N/N=C/c2ccc(-c3ncn(-c4ccc(OC(F)(F)F)cc4)n3)cc2)cc1 [Compound 12C],50 to 100,50 to 100,0 to 80
Cc1cccc(C)c1/N=C(/N/N=C/c1ccc(-c2ncn(-c3ccc(OC(F)(F)F)cc3)n2)cc1)SCc1ccc(S(N)(=O)=O)cc1 [Compound 13C],50 to 100,50 to 100,0 to 80
Cc1cccc(C)c1/N=C(/N/N=C/c1ccc(-c2ncn(-c3ccc(OC(F)(F)F)cc3)n2)cc1)SCc1cccc2nsnc12 [Compound 14C],50 to 100,50 to 100,0 to 80
Cc1cccc(C)c1/N=C(/N/N=C/c1ccc(-c2ncn(-c3ccc(OC(F)(F)F)cc3)n2)cc1)SCc1ocnc1-c1ccccc1 [Compound 15C],50 to 100,50 to 100,80 to 100
Cc1cccc(C)c1/N=C(/N/N=C/c1ccc(-c2ncn(-c3ccc(OC(F)(F)F)cc3)n2)cc1)SCc1ccc(S(C)(=O)=O)cc1 [Compound 17C],50 to 100,50 to 100,0 to 80
Cc1cccc(C)c1/N=C(/N/N=C/c1ccc(-c2ncn(-c3ccc(OC(F)(F)F)cc3)n2)cc1)SCc1ccc(S(=O)(=O)Nc2ccc(F)cc2)cc1 [Compound 18C],50 to 100,50 to 100,0 to 80
Cc1cccc(C)c1/N=C(/N/N=C/c1ccc(-c2ncn(-c3ccc(OC(F)(F)F)cc3)n2)cc1)SCc1cc2c(C(F)(F)F)nn(C)c2s1 [Compound 19C],50 to 100,50 to 100,0 to 80
CCOCC(=O)OCS/C(=N\c1c(C)cccc1C)N/N=C/c1ccc(-c2ncn(-c3ccc(OC(F)(F)F)cc3)n2)cc1 [Compound 22C],50 to 100,50 to 100,0 to 80
Cc1cccc(C)c1/N=C(/N/N=C/c1ccc(-c2ncn(-c3ccc(OC(F)(F)F)cc3)n2)cc1)SCOC(=O)OC(C)C [Compound 24C],50 to 100,50 to 100,0 to 80
COc1cc(C)c(/N=C(/N/N=C/c2ccc(-c3ncn(-c4ccc(OC(F)(F)F)cc4)n3)cc2)SCOC(=O)C(C)C)c(C)c1 [Compound 27C],50 to 100,50 to 100,0 to 80
COc1cc(C)c(/N=C(/N/N=C/c2ccc(-c3ncn(-c4ccc(OC(F)(F)F)cc4)n3)cc2)SCOC(=O)CNC(=O)OCc2ccccc2)c(C)c1 [Compound 28C],50 to 100,50 to 100,0 to 80

# Reference: patent publication US9018388B2, “Pesticidal compositions and processes related thereto” (Dow AgroSciences LLC, priority 2012, dated 2015)
